US9227971B2, “Pyrazolo[1,5-a]pyrimidine compounds as mTOR inhibitors” (Merck Sharp & Dohme Corp., priority 2010, dated 2016)
Like-named read-outs stand apart in the source and are kept apart here.

Key:
[1] = system: phosphorylated AKT Ser473 (pAKT S473), mTORC2 activity, PC3 cells; assay: mTOR target engagement assay, immunofluorescent cell-based, pAKT S473 readout (mTORC2 activity); details: Homo sapiens
Method in brief: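 After blocking, cells were stained overnight at 4 °C with anti-pAKT S473 antibody, then a fluorescent secondary; inhibition was read as reduced fluorescence intensity.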

[2] = system: phosphorylated 4E-BP1 Thr37/46 (p4E-BP1 Thr37/46), mTORC1 activity, PC3 cells; assay: mTOR target engagement assay, immunofluorescent cell-based, p4E-BP1 Thr37/46 readout (mTORC1 activity); details: Homo sapiens, read-out: p4E-BP1 Thr37/46 IC50
Method in brief: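 Seed PC3 cells overnight; treat with compound dilutions for ninety minutes at 37° C; fix with glyoxal and block; stain with anti-p4E-BP1 Thr37/46 overnight at 4° C, then fluorescent secondary; read fluorescence and fit IC50 against DMSO-only controls.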

[3] = PC-3, PC3 cells, compound treatment ninety minutes at 37° C.

| Compound | IC50 ([1]; PC-3, Table 3-1, PC3 cells) | IC50 ([2]; PC-3, Table 3-1, PC3 cells) | IC50 [1, 3] | IC50 [2, 3] |
| --- | --- | --- | --- | --- |
| Cc1cnc(-c2ccc(-c3cnn4c(N)c(S(C)(=O)=O)c([C@@H]5C[C@H]6CC[C@@H](C5)N6C(=O)C(O)C(F)(F)F)nc34)cn2)s1 (stereo partly drawn) [Compound 3.187, 1-((1R,3s,5S)-3-(7-amino-6-(methylsulfonyl)-3-(6-(5-methylthiazol-2-yl)pyridin-3-yl)pyrazolo[1,5-a]pyrimidin-5-yl)-8-azabicyclo[3.2.1]octan-8-yl)-3,3,3-trifluoro-2-hydroxypropan-1-one] | 1000 to 10000 nM | 1000 to 10000 nM | – | – |
| Cc1cnc(-c2ccc(-c3cnn4c(N)c(S(C)(=O)=O)c([C@@H]5C[C@H]6CC[C@@H](C5)N6C(=O)C(N)C(F)(F)F)nc34)cn2)s1 (stereo partly drawn) [Compound 3.188, 2-amino-1-((1R,3s,5S)-3-(7-amino-6-(methylsulfonyl)-3-(6-(5-methylthiazol-2-yl)pyridin-3-yl)pyrazolo[1,5-a]pyrimidin-5-yl)-8-azabicyclo[3.2.1]octan-8-yl)-3,3,3-trifluoropropan-1-one] | 1000 to 10000 nM | 1000 to 10000 nM | – | – |
| Cc1csc(-c2ccc(-c3cnn4c(N)c(S(C)(=O)=O)c([C@@H]5C[C@H]6CC[C@@H](C5)N6C(=O)c5cn[nH]n5)nc34)cn2)n1 [Compound 3.189, ((1R,3s,5S)-3-(7-amino-6-(methylsulfonyl)-3-(6-(4-methylthiazol-2-yl)pyridin-3-yl)pyrazolo[1,5-a]pyrimidin-5-yl)-8-azabicyclo[3.2.1]octan-8-yl)(2H-1,2,3-triazol-4-yl)methanone] | 1000 to 10000 nM | 1000 to 10000 nM | – | – |
| CC(=O)N1[C@@H]2CC[C@H]1C[C@H](c1nc3c(-c4ccc(-c5nc(C)cs5)nc4)cnn3c(N)c1S(C)(=O)=O)C2 [Compound 3.190, 1-((1R,3a,5S)-3-(7-amino-6-(methylsulfonyl)-3-(6-(4-methylthiazol-2-yl)pyridin-3-yl)pyrazolo[1,5-a]pyrimidin-5-yl)-8-azabicyclo[3.2.1]octan-8-yl)ethanone] | 1000 to 10000 nM | 1000 to 10000 nM | – | – |
| Cc1csc(-c2ccc(-c3cnn4c(N)c(S(C)(=O)=O)c([C@@H]5C[C@H]6CC[C@@H](C5)N6C(=O)c5nnc(C)[nH]5)nc34)cn2)n1 [Compound 3.191, ((1R,3s,5S)-3-(7-amino-6-(methylsulfonyl)-3-(6-(4-methylthiazol-2-yl)pyridin-3-yl)pyrazolo[1,5-a]pyrimidin-5-yl)-8-azabicyclo[3.2.1]octan-8-yl)(5-methyl-4H-1,2,4-triazol-3-yl)methanone] | 100 to 1000 nM | 100 to 1000 nM | – | – |
| Cc1csc(-c2ccc(-c3cnn4c(N)c(S(C)(=O)=O)c([C@@H]5C[C@H]6CC[C@@H](C5)N6C(=O)c5nnc[nH]5)nc34)cn2)n1 [Compound 3.192, ((1R,3s,5S)-3-(7-amino-6-(methylsulfonyl)-3-(6-(4-methylthiazol-2-yl)pyridin-3-yl)pyrazolo[1,5-a]pyrimidin-5-yl)-8-azabicyclo[3.2.1]octan-8-yl)(4H-1,2,4-triazol-3-yl)methanone] | 100 to 1000 nM | 100 to 1000 nM | – | – |
| CS(=O)(=O)c1c([C@@H]2C[C@H]3CC[C@@H](C2)N3C(=O)c2nnc[nH]2)nc2c(-c3ccc(-c4nc5c(s4)CCC5)nc3)cnn2c1N [Compound 3.193, ((1R,3s,5)S-3-(7-amino-3-(6-(5,6-dihydro-4H-cyclopenta[d]thiazol-2-yl)pyridin-3-yl)-6-(methylsulfonyl)pyrazolo[1,5-a]pyrimidin-5-yl)-8-azabicyclo[3.2.1]octan-8-yl)(4H-1,2,4-triazol-3-yl)methanone] | 100 to 1000 nM | 100 to 1000 nM | – | – |
| Cc1nnc(C(=O)N2[C@@H]3CC[C@H]2C[C@H](c2nc4c(-c5ccc(-c6nc7c(s6)CCC7)nc5)cnn4c(N)c2S(C)(=O)=O)C3)[nH]1 [Compound 3.195, ((1R,3s,5S)-3-(7-amino-3-(6-(5,6-dihydro-4H-cyclopenta[d]thiazol-2-yl)pyridin-3-yl)-6-(methylsulfonyl)pyrazolo[1,5-a]pyrimidin-5-yl)-8-azabicyclo[3.2.1]octan-8-yl)(5-methyl-4H-1,2,4-triazol-3-yl)methanone] | 1000 to 10000 nM | 1000 to 10000 nM | – | – |
| Cc1nc(-c2ccc(-c3cnn4c(N)c(S(C)(=O)=O)c([C@@H]5C[C@H]6CC[C@@H](C5)N6C(=O)c5nnc[nH]5)nc34)cn2)sc1C [Compound 3.196, ((1R,3s,5S)-3-(7-amino-3-(6-(4,5-dimethylthiazol-2-yl)pyridin-3-yl)-6-(methylsulfonyl)pyrazolo[1,5-a]pyrimidin-5-yl)-8-azabicyclo[3.2.1]octan-8-yl)(4H-1,2,4-triazol-3-yl)methanone] | 100 to 1000 nM | 100 to 1000 nM | – | – |
| Cc1nnc(C(=O)N2[C@@H]3CC[C@H]2C[C@H](c2nc4c(-c5ccc(-c6nc(C)c(C)s6)nc5)cnn4c(N)c2S(C)(=O)=O)C3)[nH]1 [Compound 3.197, ((1R,3s,5S)-3-(7-amino-3-(6-(4,5-dimethylthiazol-2-yl)pyridin-3-yl)-6-(methylsulfonyl)pyrazolo[1,5-a]pyrimidin-5-yl)-8-azabicyclo[3.2.1]octan-8-yl)(5-methyl-4H-1,2,4-triazol-3-yl]methanone] | 100 to 1000 nM | 100 to 1000 nM | – | – |
| Cc1nc(C(=O)N2[C@@H]3CC[C@H]2C[C@H](c2nc4c(-c5ccc(-c6csc(C)n6)nc5)cnn4c(N)c2S(C)(=O)=O)C3)n[nH]1 [Compound 3.199, ((1R,3s,5S)-3-(7-amino-6-(methylsulfonyl)-3-(6-(2-methylthiazol-4-yl)pyridin-3-yl)pyrazolo[1,5-a]pyrimidin-5-yl)-8-azabicyclo[3.2.1]octan-8-yl)(5-methyl-1H-1,2,4-triazol-3-yl)methanone] | 1 to 100 nM | 100 to 1000 nM | – | – |
| CC(=O)N1[C@@H]2CC[C@H]1C[C@H](c1nc3c(-c4ccc(-c5csc(C)n5)nc4)cnn3c(N)c1S(C)(=O)=O)C2 [Compound 3.200, 1-((1R,3s,5S)-3-(7-amino-6-(methylsulfonyl)-3-(6-(2-methylthiazol-4-yl)pyridin-3-yl)pyrazolo[1,5-a]pyrimidin-5-yl)-8-azabicyclo[3.2.1]octan-8-yl)ethanone] | 1000 to 10000 nM | 1000 to 10000 nM | – | – |
| Cc1nc(-c2ccc(-c3cnn4c(N)c(S(C)(=O)=O)c([C@@H]5C[C@H]6CC[C@@H](C5)N6C(=O)c5cn[nH]n5)nc34)cn2)cs1 [Compound 3.201, ((1R,3s,5S)-3-(7-amino-6-(methylsulfonyl)-3-(6-(2-methylthiazol-4-yl)pyridin-3-yl)pyrazolo[1,5-a]pyrimidin-5-yl)-8-azabicyclo[3.2.1]octan-8-yl)(2H-1,2,3-triazol-4-yl)methanone] | 100 to 1000 nM | 1000 to 10000 nM | – | – |
| CS(=O)(=O)c1c([C@@H]2C[C@H]3CC[C@@H](C2)N3)nc2c(-c3ccc(-c4ccccc4)nc3)cnn2c1N [Compound 3.202, 5-((1R,3s,5S)-8-azabicyclo[3.2.1]octan-3-yl)-6-(methylsulfonyl)-3-(6-phenylpyridin-3-yl)pyrazolo[1,5-a]pyrimidin-7-amine] | 1000 to 10000 nM | 1000 to 10000 nM | – | – |
| CC(=O)NCC(=O)N1[C@@H]2CC[C@H]1C[C@H](c1nc3c(-c4ccc(-c5ccccc5)nc4)cnn3c(N)c1S(C)(=O)=O)C2 [Compound 3.203, N-(2-((1R,3s,5S)-3-(7-amino-6-(methylsulfonyl)-3-(6-phenylpyridin-3-yl)pyrazolo[1,5-a]pyrimidin-5-yl)-8-azabicyclo[3.2.1]octan-8-yl)-2-oxoethyl)acetamide] | 1 to 100 nM | 1 to 100 nM | – | – |
| CS(=O)(=O)c1c([C@@H]2C[C@H]3CC[C@@H](C2)N3C(=O)[C@H]2CCCN2)nc2c(-c3ccc(-c4ccccc4)nc3)cnn2c1N [Compound 3.205] | 100 to 1000 nM | 100 to 1000 nM | – | – |
| CS(=O)(=O)c1c([C@@H]2C[C@H]3CC[C@@H](C2)N3C(=O)[C@@H]2CCCN2)nc2c(-c3ccc(-c4ccccc4)nc3)cnn2c1N [Compound 3.206, ((1R,3R,5S)-3-(7-amino-6-(methylsulfonyl)-3-(6-phenylpyridin-3-yl)pyrazolo[1,5-a]pyrimidin-5-yl)-8-azabicyclo[3.2.1]octan-8-yl)((S)-pyrrolidin-2-yl)methanone] | 1000 to 10000 nM | 1000 to 10000 nM | – | – |
| Nc1c(C2CC2)c([C@@H]2C[C@H]3CC[C@@H](C2)N3C(=O)c2nnc[nH]2)nc2c(-c3ccc(-c4ccccc4)nc3)cnn12 [Compound 4.1, ((1R,3a,5S)-3-(7-amino-6-cyclopropyl-3-(6-phenylpyridin-3-yl)pyrazolo[1,5-a]pyrimidin-5-yl)-8-azabicyclo[3.2.1]octan-8-yl)(4H-1,2,4-triazol-3-yl)methanone] | – | – | 1 to 100 nM | 1 to 100 nM |
| Cc1nnc(C(=O)N2[C@@H]3CC[C@H]2C[C@H](c2nc4c(-c5ccc(-c6ccccc6)nc5)cnn4c(N)c2C2CC2)C3)[nH]1 [Compound 4.2, ((1R,3a,5S)-3-(7-amino-6-cyclopropyl-3-(6-phenylpyridin-3-yl)pyrazolo[1,5-a]pyrimidin-5-yl)-8-azabicyclo[3.2.1]octan-8-yl)(5-methyl-4H-1,2,4-triazol-3-yl)methanone] | – | – | 1 to 100 nM | 1 to 100 nM |
| Nc1c(C2CC2)c([C@@H]2C[C@H]3CC[C@@H](C2)N3S(=O)(=O)c2nnc[nH]2)nc2c(-c3ccc(-c4ccccc4)nc3)cnn12 [Compound 4.3, 5-((1R,3a,5S)-8-(4H-1,2,4-triazol-3-ylsulfonyl)-8-azabicyclo[3.2.1]octan-3-yl)-6-cyclopropyl-3-(6-phenylpyridin-3-yl)pyrazolo[1,5-a]pyrimidin-7-amine] | – | – | 1000 to 10000 nM | 1000 to 10000 nM |
